According to BigSolDB 2.1:

C[n+]1ccn(CCOCCOCCn2cc[n+](C)c2)c1.F[P-](F)(F)(F)(F)F.F[P-](F)(F)(F)(F)F
solubility (mole fraction)
Settings	283 K	288 K	293 K	298 K	303 K	308 K
in DMF	0.098	0.101	0.105	0.109	0.113	–
in DMSO	–	–	0.106	0.119	0.131	0.14
in ethanol	3.3e-05	4e-05	4.7e-05	5.7e-05	7.2e-05	–
in methanol	0.000198	0.000231	0.000285	0.000369	0.000502	–
in water	0.00015	0.000197	0.000257	0.000334	0.00043	–
